Results on eight compounds are retold here after ChEMBL document CHEMBL5465560, “Selectivity Literature for EUbOPEN Chemogenomic Library” (2024).

Test [1] has as its target Serine/threonine-protein kinase 38-like (Homo sapiens) (UniProt Q9Y2H1). To be noted: at 10 µM.
For test [2], the target named is Vascular endothelial growth factor receptor 3 (Homo sapiens, UniProt P35916). The experiment in a line: Selectivity interaction (KinomeScan (DiscoverX)) EUB0000092b FLT4. To be noted: at 10 µM.
For test [3], the target named is Dual specificity tyrosine-phosphorylation-regulated kinase 1A (Homo sapiens, UniProt Q13627). Put plainly: Selectivity interaction (KinomeScan (DiscoverX)) EUB0001049a DYRK1A. The following applies: at 1 µM.
In test [4] the target is Mitogen-activated protein kinase kinase kinase 11 (Homo sapiens) (UniProt Q16584). The experiment in a line: Selectivity interaction (KinomeScan (DiscoverX)) EUB0001049a MAP3K11. The following applies: at 1 µM.
Sequence of Mitogen-activated protein kinase kinase kinase 11 (Homo sapiens) (Q16584 whole entry, looked up): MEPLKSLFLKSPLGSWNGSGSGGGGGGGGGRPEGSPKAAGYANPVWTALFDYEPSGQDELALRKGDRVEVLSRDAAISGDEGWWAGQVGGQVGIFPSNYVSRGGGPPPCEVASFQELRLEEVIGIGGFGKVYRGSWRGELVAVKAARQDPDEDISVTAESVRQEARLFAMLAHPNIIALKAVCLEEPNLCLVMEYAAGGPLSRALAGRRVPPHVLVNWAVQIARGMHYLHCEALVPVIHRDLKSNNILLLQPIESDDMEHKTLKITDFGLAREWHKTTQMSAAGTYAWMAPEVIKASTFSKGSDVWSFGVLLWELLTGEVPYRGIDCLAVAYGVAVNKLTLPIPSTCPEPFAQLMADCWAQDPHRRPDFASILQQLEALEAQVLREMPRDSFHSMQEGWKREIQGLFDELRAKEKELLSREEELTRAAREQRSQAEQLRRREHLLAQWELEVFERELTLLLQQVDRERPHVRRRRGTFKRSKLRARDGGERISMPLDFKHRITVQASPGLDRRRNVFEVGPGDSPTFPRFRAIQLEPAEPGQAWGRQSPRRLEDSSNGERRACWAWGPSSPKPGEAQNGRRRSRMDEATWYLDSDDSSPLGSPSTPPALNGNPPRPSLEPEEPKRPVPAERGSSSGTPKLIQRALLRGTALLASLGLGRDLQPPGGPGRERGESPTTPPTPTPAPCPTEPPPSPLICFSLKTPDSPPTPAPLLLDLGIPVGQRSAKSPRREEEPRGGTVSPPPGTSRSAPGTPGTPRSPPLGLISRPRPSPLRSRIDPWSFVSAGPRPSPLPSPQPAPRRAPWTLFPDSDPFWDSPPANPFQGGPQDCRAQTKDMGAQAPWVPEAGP
Test [5] addresses Calcium/calmodulin-dependent protein kinase type 1G (Homo sapiens) (UniProt Q96NX5). The experiment in a line: Selectivity interaction (KinomeScan (DiscoverX)) EUB0000655a CAMK1G. The following applies: at 10 µM.
The target in test [6] is Cyclin-dependent kinase 16 (Homo sapiens) (UniProt Q00536). The experiment in a line: Selectivity interaction (KinomeScan (DiscoverX)) EUB0000695a CDK16. The following applies: at 100 nM.
Sequence of Cyclin-dependent kinase 16 (Homo sapiens) (Q00536 whole entry): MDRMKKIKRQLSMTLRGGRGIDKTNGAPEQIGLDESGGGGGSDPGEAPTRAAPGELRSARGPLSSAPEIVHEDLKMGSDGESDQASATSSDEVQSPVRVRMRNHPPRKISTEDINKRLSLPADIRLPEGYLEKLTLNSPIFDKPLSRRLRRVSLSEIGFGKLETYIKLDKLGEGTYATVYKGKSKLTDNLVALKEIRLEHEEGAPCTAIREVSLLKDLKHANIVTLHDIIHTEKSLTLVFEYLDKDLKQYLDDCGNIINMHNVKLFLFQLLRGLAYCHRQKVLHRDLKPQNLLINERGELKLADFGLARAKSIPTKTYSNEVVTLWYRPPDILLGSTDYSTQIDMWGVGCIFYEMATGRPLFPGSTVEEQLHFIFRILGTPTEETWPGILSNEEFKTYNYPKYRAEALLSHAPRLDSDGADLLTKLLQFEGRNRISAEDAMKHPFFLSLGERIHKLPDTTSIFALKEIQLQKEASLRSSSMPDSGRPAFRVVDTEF
Test [7] addresses T1, Ephrin type-B receptor 1 (Homo sapiens) (UniProt P54762).
T1 sequence (whole entry): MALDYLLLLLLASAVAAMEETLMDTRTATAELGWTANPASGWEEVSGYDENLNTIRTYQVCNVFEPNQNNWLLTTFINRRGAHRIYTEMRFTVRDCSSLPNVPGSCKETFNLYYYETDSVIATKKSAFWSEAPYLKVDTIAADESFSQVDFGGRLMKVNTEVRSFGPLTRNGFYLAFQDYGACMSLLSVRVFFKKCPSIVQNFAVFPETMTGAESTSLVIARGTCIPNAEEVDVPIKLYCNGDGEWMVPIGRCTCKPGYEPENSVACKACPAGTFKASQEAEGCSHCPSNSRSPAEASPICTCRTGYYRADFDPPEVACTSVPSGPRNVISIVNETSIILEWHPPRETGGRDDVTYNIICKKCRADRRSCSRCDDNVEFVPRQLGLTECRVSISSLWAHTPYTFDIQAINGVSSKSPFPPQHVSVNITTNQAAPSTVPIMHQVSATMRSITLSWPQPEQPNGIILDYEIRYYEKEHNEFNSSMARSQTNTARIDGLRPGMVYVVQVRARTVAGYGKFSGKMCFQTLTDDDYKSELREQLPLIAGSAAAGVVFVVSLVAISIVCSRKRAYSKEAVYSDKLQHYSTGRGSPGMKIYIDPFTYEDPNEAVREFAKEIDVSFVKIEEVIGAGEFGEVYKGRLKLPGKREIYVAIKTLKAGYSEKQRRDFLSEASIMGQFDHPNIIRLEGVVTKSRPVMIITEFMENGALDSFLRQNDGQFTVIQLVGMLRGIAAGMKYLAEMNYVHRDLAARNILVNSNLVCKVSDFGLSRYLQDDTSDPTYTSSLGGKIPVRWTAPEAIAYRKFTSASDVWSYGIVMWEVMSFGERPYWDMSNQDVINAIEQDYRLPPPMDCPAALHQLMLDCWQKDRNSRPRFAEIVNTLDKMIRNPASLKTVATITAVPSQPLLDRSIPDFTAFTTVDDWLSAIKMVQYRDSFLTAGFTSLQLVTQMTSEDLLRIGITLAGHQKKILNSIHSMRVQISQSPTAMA
The experiment in a line: Selectivity interaction (KinomeScan (DiscoverX)) EUB0000607a EPHB1. The following applies: at 10 µM.

Test [8] has as its target 5'-AMP-activated protein kinase catalytic subunit alpha-2 (Homo sapiens) (UniProt P54646). Put plainly: Selectivity interaction (ActivX KiNativ screen (kinase selectivity in THP-1 cell lysates)) EUB0000639a PRKAA2. It counts as subcellular. The following applies: lysate, at 0.04 µM.
For test [9], the target named is Tyrosine-protein kinase JAK2 (Homo sapiens, UniProt O60674). The experiment in a line: Selectivity interaction (KinomeScan (DiscoverX)) EUB0000595a JAK2. The following applies: at 10 µM.
Sequence of Tyrosine-protein kinase JAK2 (O60674 whole entry, the tested form may be a part): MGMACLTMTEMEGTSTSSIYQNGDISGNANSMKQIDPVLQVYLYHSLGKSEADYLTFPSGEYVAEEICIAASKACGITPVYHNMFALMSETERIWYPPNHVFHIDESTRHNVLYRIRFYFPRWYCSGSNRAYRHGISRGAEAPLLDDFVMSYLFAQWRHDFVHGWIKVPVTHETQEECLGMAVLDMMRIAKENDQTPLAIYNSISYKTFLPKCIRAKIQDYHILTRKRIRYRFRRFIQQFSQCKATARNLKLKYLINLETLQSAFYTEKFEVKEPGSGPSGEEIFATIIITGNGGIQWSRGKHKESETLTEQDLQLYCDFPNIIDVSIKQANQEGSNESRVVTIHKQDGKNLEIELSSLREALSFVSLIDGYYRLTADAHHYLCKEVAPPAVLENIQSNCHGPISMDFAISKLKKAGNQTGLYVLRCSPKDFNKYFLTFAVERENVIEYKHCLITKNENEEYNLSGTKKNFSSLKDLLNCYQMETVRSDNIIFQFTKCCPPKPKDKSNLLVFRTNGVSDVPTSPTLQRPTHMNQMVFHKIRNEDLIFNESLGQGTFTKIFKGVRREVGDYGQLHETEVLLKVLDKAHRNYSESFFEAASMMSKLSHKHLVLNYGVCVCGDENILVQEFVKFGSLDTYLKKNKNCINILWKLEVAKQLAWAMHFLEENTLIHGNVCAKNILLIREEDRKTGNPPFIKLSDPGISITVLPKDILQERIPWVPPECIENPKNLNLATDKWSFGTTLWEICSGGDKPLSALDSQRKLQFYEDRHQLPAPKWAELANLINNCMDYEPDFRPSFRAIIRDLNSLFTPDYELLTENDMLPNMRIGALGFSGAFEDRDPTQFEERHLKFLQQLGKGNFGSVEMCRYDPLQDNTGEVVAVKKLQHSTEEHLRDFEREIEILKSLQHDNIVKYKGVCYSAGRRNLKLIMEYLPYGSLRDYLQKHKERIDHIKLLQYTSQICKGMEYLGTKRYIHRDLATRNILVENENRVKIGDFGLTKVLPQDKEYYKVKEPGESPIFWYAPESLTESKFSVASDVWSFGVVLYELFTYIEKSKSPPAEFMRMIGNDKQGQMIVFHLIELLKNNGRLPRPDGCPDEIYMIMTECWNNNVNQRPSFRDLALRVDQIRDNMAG
The target of test [10] is T2, Discoidin domain-containing receptor 2 (Homo sapiens) (UniProt Q16832).
T2 sequence (whole entry): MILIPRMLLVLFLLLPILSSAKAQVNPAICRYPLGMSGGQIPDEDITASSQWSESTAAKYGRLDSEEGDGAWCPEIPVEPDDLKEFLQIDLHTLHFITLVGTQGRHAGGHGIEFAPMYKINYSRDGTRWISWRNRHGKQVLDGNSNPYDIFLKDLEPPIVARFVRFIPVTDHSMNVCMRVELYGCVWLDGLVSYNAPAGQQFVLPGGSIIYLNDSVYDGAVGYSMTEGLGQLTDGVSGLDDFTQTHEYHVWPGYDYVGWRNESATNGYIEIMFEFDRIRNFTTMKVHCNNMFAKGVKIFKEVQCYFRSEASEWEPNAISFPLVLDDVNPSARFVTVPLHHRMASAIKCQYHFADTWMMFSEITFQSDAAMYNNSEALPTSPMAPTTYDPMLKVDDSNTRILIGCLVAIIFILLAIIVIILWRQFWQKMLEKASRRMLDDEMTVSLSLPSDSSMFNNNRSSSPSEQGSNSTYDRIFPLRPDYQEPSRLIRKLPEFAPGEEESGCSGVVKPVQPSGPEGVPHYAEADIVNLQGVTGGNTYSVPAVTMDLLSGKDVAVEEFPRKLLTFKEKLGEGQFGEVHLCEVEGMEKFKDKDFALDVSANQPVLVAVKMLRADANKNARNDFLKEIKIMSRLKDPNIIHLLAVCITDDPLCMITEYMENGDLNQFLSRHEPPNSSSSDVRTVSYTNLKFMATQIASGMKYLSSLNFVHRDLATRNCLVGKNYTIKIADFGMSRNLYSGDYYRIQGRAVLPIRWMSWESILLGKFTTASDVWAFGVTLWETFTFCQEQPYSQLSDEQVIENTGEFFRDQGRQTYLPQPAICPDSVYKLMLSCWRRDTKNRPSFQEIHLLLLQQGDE
The following applies: at 10 µM.

Sequence of Vascular endothelial growth factor receptor 3 (P35916 whole entry): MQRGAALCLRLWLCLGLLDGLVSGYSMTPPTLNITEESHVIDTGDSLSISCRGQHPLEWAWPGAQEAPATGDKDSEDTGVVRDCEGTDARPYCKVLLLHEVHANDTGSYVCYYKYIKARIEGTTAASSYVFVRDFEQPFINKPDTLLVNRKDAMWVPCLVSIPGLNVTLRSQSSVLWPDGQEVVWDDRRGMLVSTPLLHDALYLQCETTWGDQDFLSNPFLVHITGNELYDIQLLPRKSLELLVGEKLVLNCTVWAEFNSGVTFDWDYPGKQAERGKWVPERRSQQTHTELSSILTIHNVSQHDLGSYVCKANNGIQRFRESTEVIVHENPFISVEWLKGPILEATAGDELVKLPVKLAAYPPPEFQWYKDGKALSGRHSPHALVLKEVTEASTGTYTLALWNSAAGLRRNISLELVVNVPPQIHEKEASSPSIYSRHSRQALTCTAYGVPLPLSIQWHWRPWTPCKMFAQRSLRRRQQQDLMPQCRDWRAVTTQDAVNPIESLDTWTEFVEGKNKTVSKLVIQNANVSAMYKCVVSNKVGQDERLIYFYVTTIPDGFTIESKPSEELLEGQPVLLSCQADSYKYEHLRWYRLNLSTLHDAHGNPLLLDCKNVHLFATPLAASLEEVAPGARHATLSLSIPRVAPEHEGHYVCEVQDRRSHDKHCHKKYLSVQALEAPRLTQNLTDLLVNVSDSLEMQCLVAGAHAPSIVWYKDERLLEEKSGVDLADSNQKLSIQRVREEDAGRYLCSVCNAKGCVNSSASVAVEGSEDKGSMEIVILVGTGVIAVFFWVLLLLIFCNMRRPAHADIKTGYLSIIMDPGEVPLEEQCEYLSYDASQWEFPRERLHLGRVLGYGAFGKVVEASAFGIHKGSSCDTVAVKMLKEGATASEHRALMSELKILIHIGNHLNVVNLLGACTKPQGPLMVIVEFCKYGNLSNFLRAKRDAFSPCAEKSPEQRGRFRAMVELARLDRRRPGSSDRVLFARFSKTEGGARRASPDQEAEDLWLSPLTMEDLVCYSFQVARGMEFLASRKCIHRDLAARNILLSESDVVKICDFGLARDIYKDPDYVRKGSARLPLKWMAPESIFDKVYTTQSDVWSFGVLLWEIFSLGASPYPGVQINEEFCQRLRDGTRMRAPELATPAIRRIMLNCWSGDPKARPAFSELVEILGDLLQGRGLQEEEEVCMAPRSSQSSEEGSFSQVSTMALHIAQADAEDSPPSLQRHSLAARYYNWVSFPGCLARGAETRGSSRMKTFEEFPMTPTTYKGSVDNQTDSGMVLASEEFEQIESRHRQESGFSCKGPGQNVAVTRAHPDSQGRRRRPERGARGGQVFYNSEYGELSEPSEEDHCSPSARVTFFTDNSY
Sequence of 5'-AMP-activated protein kinase catalytic subunit alpha-2 (Homo sapiens) (P54646 whole entry, looked up): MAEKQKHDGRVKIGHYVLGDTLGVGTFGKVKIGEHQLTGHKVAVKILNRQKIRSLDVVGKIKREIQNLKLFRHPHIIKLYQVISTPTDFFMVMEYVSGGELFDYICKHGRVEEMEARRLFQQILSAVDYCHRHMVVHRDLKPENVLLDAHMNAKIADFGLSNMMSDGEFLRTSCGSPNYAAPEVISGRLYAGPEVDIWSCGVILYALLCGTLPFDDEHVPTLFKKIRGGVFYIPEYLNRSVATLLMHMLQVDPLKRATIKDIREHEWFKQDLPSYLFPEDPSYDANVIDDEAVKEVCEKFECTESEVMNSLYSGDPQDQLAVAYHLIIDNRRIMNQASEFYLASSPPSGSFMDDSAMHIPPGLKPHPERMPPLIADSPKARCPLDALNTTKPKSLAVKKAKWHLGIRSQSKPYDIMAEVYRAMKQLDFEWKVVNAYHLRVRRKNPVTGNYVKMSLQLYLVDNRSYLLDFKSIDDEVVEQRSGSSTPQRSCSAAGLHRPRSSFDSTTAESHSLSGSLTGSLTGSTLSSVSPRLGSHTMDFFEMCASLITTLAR
Sequence of Calcium/calmodulin-dependent protein kinase type 1G (Homo sapiens) (Q96NX5 whole entry): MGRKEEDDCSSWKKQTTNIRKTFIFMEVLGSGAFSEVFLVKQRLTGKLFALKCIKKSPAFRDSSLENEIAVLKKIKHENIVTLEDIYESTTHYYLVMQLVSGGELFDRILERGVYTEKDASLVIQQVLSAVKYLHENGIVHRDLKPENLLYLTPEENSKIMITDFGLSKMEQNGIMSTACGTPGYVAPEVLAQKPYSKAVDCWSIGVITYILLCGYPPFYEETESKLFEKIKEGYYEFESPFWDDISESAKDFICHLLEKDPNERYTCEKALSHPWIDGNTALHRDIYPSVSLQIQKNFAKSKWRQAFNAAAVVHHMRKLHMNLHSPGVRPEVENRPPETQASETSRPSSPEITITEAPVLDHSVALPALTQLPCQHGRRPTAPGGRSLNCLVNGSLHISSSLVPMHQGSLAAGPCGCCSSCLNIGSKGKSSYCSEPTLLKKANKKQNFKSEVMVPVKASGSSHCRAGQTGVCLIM

In test [1], `CCN(CC)CCCCNc1ncc2cc(-c3cc(OC)cc(OC)c3)c(NC(=O)NC(C)(C)C)nc2n1` yielded a % of control of 100%.
For the compound `CCC(=O)N1CCN(c2ccc(-n3c(=O)ccc4cnc5ccc(-c6cnc7ccccc7c6)cc5c43)cc2C(F)(F)F)CC1`, the % of control in test [2] turned out to be 74%.
Turning to `COc1cc(Nc2nc(C)cc(-c3cnn4nc(OC)ccc34)n2)cc(C(F)(F)F)c1`, the % of control worked out at 74% in [3] and 79% in test [4].
Regarding `CN(C)CCOc1ccc(-c2nc(-c3ccncc3)c(-c3ccc4c(c3)CC/C4=N\O)[nH]2)cc1`, in test [5], the % of control was found to be 100%.
`Cc1cc(F)c(C(=O)Nc2cccc(-c3nncn3C(C)C)n2)cc1-n1cnc(C2CC2)c1`: the % of control in [6] was determined as 75%.
Regarding `CNC(=O)Nc1ccc(-c2nc(N3CC4CCC(C3)O4)c3cnn(C4CCC5(CC4)OCCO5)c3n2)cc1`, the % of control in test [7] was 90%.
Turning to `CC[C@@H]1[C@H](F)C(=O)N[C@@H]1COc1nccc2cc(C(N)=O)c(OC)cc12` [ZIMLOVISERTIB], in test [8], the % of inhibition is -11.5%.
Regarding `COCC(=O)NC/C=C/c1ccc2ncnc(Nc3ccc(Oc4ccc(C)nc4)c(C)c3)c2c1` [CP-724714], the % of control in test [9] and in test [10] was 100% in each case.
